The results in this text go back to the NIST ThermoML archive (doi:10.1021/je1011136).

Numbers after ± are expanded uncertainties.

The conditions of data set [1]: Crystal; DTA.
Data set [2] is described as follows: Molar enthalpy of transition or fusion. The note with it: Crystal; DSC.

`COc1cc(CNC(=O)CCCCCCC(C)C)ccc1O` [N-(4-hydroxy-3-methoxybenzyl)-8-methylnonanamide]: the Normal melting temperature in data set [1] was 59.4 ± 1.1 °C. Moreover, the “Molar enthalpy of transition or fusion” value in data set [2] is 19 ± 0.57 kJ/mol.
